Assay results taken from patent publication US20240148821A1, “PHARMACEUTICAL USE OF CYCLIC PEPTIDE COMPOUND” (CHUGAI SEIYAKU KABUSHIKI KAISHA, priority 2021, published 2024).
Numbered stars: 1 amine (or outer) side, 2 acyl side, 3 side chain; on linkers, the order of the positions; unused ones are H or OH. Bridge positions count the residues as written; N and C are the ends. Square brackets hold non-standard residues; d marks the D form. Peptide text beside a SMILES is read from it. * marks the point of attachment. hPhe(3,5-F2-4-CF3) = N[C@@H](CCc1cc(F)c(C(F)(F)F)c(F)c1)C(=O)O; hPhe(3-Cl-4-CF3) = N[C@@H](CCc1ccc(C(F)(F)F)c(Cl)c1)C(=O)O; NMePhe(4-CF3) = CN[C@@H](Cc1ccc(C(F)(F)F)cc1)C(=O)O; NMedβ3hAla = C[C@H](CC(=O)[*:2])N(C)[*:1]; NMeAla(cPent) = CN[C@@H](CC1CCCC1)C(=O)O; NMeGly(cPent) = CN[C@H](C(=O)O)C1CCCC1; NMeAla(cPr) = CN[C@@H](CC1CC1)C(=O)O; NMehPhe = CN[C@@H](CCc1ccccc1)C(=O)O; NMe3Pal = CN[C@@H](Cc1cccnc1)C(=O)O; NMeGly(cBu) = CN[C@H](C(=O)O)C1CCC1; NMeCha = CN[C@@H](CC1CCCCC1)C(=O)O; Hyp = O=C(O)[C@@H]1C[C@@H](O)CN1; NMeAhp(2) = CCCCC[C@H](NC)C(=O)O; NMeChg = CN[C@H](C(=O)O)C1CCCCC1; NMeI = CC[C@H](C)[C@H](NC)C(=O)O; NMeD = CN[C@@H](CC(=O)O)C(=O)O; NMeL = CN[C@@H](CC(C)C)C(=O)O; NMePra = C#CC[C@H](NC)C(=O)O; NMeNva = CCC[C@H](NC)C(=O)O; NMeV = CN[C@H](C(=O)O)C(C)C; d(β3hA) = C[C@@H](N)CC(=O)O; NMeAbu = CC[C@H](NC)C(=O)O; NPhGly = O=C(O)CNc1ccccc1; Morpholide = C1CN(*)CCO1; NMeA = CN[C@@H](C)C(=O)O; NMeAib = CNC(C)(C)C(=O)O; Piperidide = C1CCN(*)CC1; Pyrrolidide = C1CCN(*)C1; Ac5c = NC1(C(=O)O)CCCC1; Aze = O=C(O)[C@@H]1CCN1; Sar = CNCC(=O)O

What was measured:
[1] = system: Human pancreatic cancer cell line AsPC-1 (G12D mutation Kras); test: AsPC-1 cell growth inhibition (AsPC-1 CGI); type: cell-based; conditions: read-out: AsPC-1 cell growth inhibition, 50% growth inhibitory concentration (IC50 value); 96 hours, CellTiter-Glo, values classified in ranges
Method: Test compounds were serially dilated with dimethyl sulfoxide, and 200 nL was then dispensed to a U-bottom 96-well plate using Labcyte Echo. […] The cell suspension was dispensed to a. plate containing a test compound at 100 μL per well and incubated at 37° C. in a 5% carbon dioxide gas incubator. 96 hours later, 80 μL of CellTiter-Glo (Promega) was added to each well and fluorescence was measured.

[2] = target: protein-protein interaction between Kras and SOS1 (biotin-tagged human Kras loaded with GDP, His-tagged human SOS1) (Homo sapiens (Human), UniProt P01116, G12D); test: Protein-protein interaction inhibition between Kras and SOS1 (KrasG12D-SOS PPI) using AlphaScreen; type: biochemical; conditions: AlphaScreen; biotin-tagged human Kras loaded with GDP, His-tagged human SOS1; read-out: KRAS G12D-SOS PPI IC50;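 note: kras produced in E. coli, Ni-coupled donor beads and streptavidin acceptor beads, excitation 680 nm with emission detected at 520–620 nm via singlet oxygen transfer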

SMILES	IC50 [1] [nM]	IC50 [2] [nM]
CC[C@H](C)[C@@H]1NC(=O)[C@H](CC(C)C)N(C)C(=O)C[C@@H](C(=O)N2CCCCC2)N(C)C(=O)[C@H](C(C)C)N(C)C(=O)C2(CCCC2)NC(=O)[C@H](C)NC(=O)[C@H](CCc2ccc(C(F)(F)F)c(Cl)c2)NC(=O)CN(C)C(=O)[C@H](CC2CCCCC2)N(C)C(=O)CN(C)C(=O)CN(C)C1=O [Compound 156] ([NMeL]I[Sar][Sar][NMeCha][Sar][hPhe(3-Cl-4-CF3)]A[Ac5c][NMeV][NMeD]-Piperidide; lactam N-11)	> 500	0.98
CC[C@H](C)[C@@H]1NC(=O)[C@H](CC(C)C)N(C)C(=O)C[C@@H](C)N(C)C(=O)[C@H](C2CCCCC2)N(C)C(=O)C2(CCCC2)NC(=O)[C@H](Cc2cccnc2)N(C)C(=O)[C@H](CCc2ccc(C(F)(F)F)c(Cl)c2)NC(=O)CN(C)C(=O)[C@H](CC2CCCCC2)N(C)C(=O)CN(C)C(=O)CN(C)C1=O [Compound 1849] (cyclo([Ac5c][NMeChg][NMedβ3hAla][NMeL]I[Sar][Sar][NMeCha][Sar][hPhe(3-Cl-4-CF3)][NMe3Pal]))	> 500	230
CC[C@H](C)[C@@H]1NC(=O)[C@H](CC(C)C)N(C)C(=O)C[C@@H](C(=O)N2CCOCC2)N(C)C(=O)[C@H](C2CCCC2)N(C)C(=O)C2(CCCC2)NC(=O)[C@@H]2CCCN2C(=O)[C@H](CCc2cc(F)c(C(F)(F)F)c(F)c2)NC(=O)CN(C)C(=O)[C@H](CC2CCCCC2)N(C)C(=O)[C@@H]2CCN2C(=O)[C@H](C)N(C)C1=O [Compound 1308] ([NMeL]I[NMeA][Aze][NMeCha][Sar][hPhe(3,5-F2-4-CF3)]P[Ac5c][NMeGly(cPent)][NMeD]-Morpholide; lactam N-11)	≤ 20	0.65
CC[C@H](C)[C@@H]1NC(=O)[C@H](CC(C)C)N(C)C(=O)C[C@@H](C(=O)N2CCCCC2)N(C)C(=O)[C@H](CC2CC2)N(C)C(=O)C2(CCCC2)NC(=O)[C@@H]2CCCN2C(=O)[C@H](CCc2ccc(C(F)(F)F)c(Cl)c2)NC(=O)CN(C)C(=O)[C@H](CC2CCCCC2)N(C)C(=O)[C@@H]2CCN2C(=O)[C@H](C)N(C)C1=O [Compound 172] ([NMeL]I[NMeA][Aze][NMeCha][Sar][hPhe(3-Cl-4-CF3)]P[Ac5c][NMeAla(cPr)][NMeD]-Piperidide; lactam N-11)	> 500	4
CC[C@H](C)[C@@H]1NC(=O)[C@H](C)N(C)C(=O)C[C@@H](C(=O)N2CCCCC2)N(C)C(=O)[C@H](C(C)C)N(C)C(=O)C(C)(C)N(C)C(=O)[C@@H]2CCCN2C(=O)[C@H](CCc2ccc(C(F)(F)F)c(Cl)c2)NC(=O)CN(C)C(=O)[C@H](CC2CCCCC2)N(C)C(=O)[C@@H]2CCN2C(=O)[C@H](C)N(C)C1=O [Compound 1034] ([NMeA]I[NMeA][Aze][NMeCha][Sar][hPhe(3-Cl-4-CF3)]P[NMeAib][NMeV][NMeD]-Piperidide; lactam N-11)	> 500	1.7
CCC[C@H]1C(=O)N[C@@H]([C@@H](C)CC)C(=O)N(C)CC(=O)N(C)CC(=O)N(C)[C@@H](CC2CCCCC2)C(=O)N(C)CC(=O)N[C@@H](CCc2cc(F)c(C(F)(F)F)c(F)c2)C(=O)N2C[C@H](OCC)C[C@H]2C(=O)NC2(CCCC2)C(=O)N(C)[C@@H](C2CCCCC2)C(=O)N(C)[C@H](C(=O)N2CCCC2)CC(=O)N1C [Compound 1367] ([NMeNva]I[Sar][Sar][NMeCha][Sar][hPhe(3,5-F2-4-CF3)][Hyp](Et)[Ac5c][NMeChg][NMeD]-Pyrrolidide; lactam N-11)	≤ 20	0.65
CC[C@H](C)[C@@H]1NC(=O)[C@H](C)N(C)C(=O)C[C@@H](C)N(C)C(=O)[C@H](CC(C)C)NC(=O)C(C)(C)N(C)C(=O)[C@H](CC(C)C)NC(=O)[C@H](CCc2ccc(C(F)(F)F)c(Cl)c2)NC(=O)CN(C)C(=O)[C@H](CC2CCCCC2)N(C)C(=O)CN(C)C(=O)CN(C)C1=O [Compound 1380] (cyclo(I[Sar][Sar][NMeCha][Sar][hPhe(3-Cl-4-CF3)]L[NMeAib]L[NMedβ3hAla][NMeA]))	> 500	16
C#CC[C@H]1C(=O)N(C)[C@H](C(=O)N2CCCCC2)CC(=O)N(C)[C@@H](CC(C)C)C(=O)N[C@@H]([C@@H](C)CC)C(=O)N(C)[C@@H](C)C(=O)N2CC[C@H]2C(=O)N(C)[C@@H](CC2CCCCC2)C(=O)N(C)CC(=O)N[C@@H](CCc2ccc(C(F)(F)F)c(Cl)c2)C(=O)N2CCC[C@H]2C(=O)NC2(CCCC2)C(=O)N1C [Compound 766] ([NMeL]I[NMeA][Aze][NMeCha][Sar][hPhe(3-Cl-4-CF3)]P[Ac5c][NMePra][NMeD]-Piperidide; lactam N-11)	> 500	130
CC[C@H](C)[C@@H]1NC(=O)[C@H](C)N(C)C(=O)C[C@@H](C(=O)N2CCCCC2)N(C)C(=O)[C@H](C(C)C)N(C)C(=O)C2(CCCC2)NC(=O)[C@@H]2CCCN2C(=O)[C@H](CCc2ccc(C(F)(F)F)c(Cl)c2)NC(=O)CN(C)C(=O)[C@H](CC2CCCCC2)N(C)C(=O)[C@@H]2CCN2C(=O)[C@H](CCc2ccccc2)N(C)C1=O [Compound 1559] ([NMeA]I[NMehPhe][Aze][NMeCha][Sar][hPhe(3-Cl-4-CF3)]P[Ac5c][NMeV][NMeD]-Piperidide; lactam N-11)	> 500	28
CC[C@H](C)[C@@H]1NC(=O)[C@H](C)N(C)C(=O)C[C@@H](C(=O)N2CCCCC2)N(C)C(=O)[C@H](C2CCC2)N(C)C(=O)C2(CCCC2)NC(=O)CN(c2ccccc2)C(=O)[C@H](CCc2ccc(C(F)(F)F)c(Cl)c2)NC(=O)CN(C)C(=O)[C@H](CC2CCCCC2)N(C)C(=O)CN(C)C(=O)CN(C)C1=O [Compound 2151] ([NMeA]I[Sar][Sar][NMeCha][Sar][hPhe(3-Cl-4-CF3)][NPhGly][Ac5c][NMeGly(cBu)][NMeD]-Piperidide; lactam N-11)	> 500	2.5
CC[C@H](C)[C@@H]1NC(=O)[C@H](CC(C)C)N(C)C(=O)C[C@@H](C(=O)N2CCCCC2)N(C)C(=O)[C@H](CC)N(C)C(=O)C2(CCCC2)NC(=O)[C@@H]2CCCN2C(=O)[C@H](CCc2ccc(C(F)(F)F)c(Cl)c2)NC(=O)CN(C)C(=O)[C@H](CC2CCCCC2)N(C)C(=O)[C@@H]2CCN2C(=O)[C@H](C)N(C)C1=O [Compound 1678] ([NMeL]I[NMeA][Aze][NMeCha][Sar][hPhe(3-Cl-4-CF3)]P[Ac5c][NMeAbu][NMeD]-Piperidide; lactam N-11)	> 500	26
CC[C@H](C)[C@@H]1NC(=O)[C@H](CC(C)C)N(C)C(=O)C[C@@H](C(=O)N2CCCCC2)N(C)C(=O)[C@H](CC(C)C)NC(=O)C(C)(C)N(C)C(=O)[C@@H]2CCCCCC[C@@H](C(=O)N(C)CC(=O)N[C@@H](Cc3cccc(I)c3)C(=O)N2)N(C)C(=O)CN(C)C(=O)CN(C)C1=O [Compound 1411, (1S,7S,10S,14S,17S,26S,32S)-32-[(3-iodophenyl)methyl]-7,14-diisobutyl-3,4,4,9,13,19,22,25,28-nonamethyl-17-[(1S)-1-methylpropyl]-10-(piperidine-1-carbonyl)-3,6,9,13,16,19,22,25,28,31,34-undecazabicyclo[24.8.6]tetracontane-2,5,8,12,15,18,21,24,27,30,33-undecone]	> 500	82
CC[C@H](C)[C@@H]1NC(=O)[C@H](C(C)C)N(C)C(=O)C[C@@H](C)NC(=O)[C@H](CC(C)C)N(C)C(=O)C2(CCCC2)NC(=O)[C@H](CC(C)C)N(C)C(=O)[C@H](CCc2ccc(C(F)(F)F)c(Cl)c2)NC(=O)CN(C)C(=O)[C@H](CC2CCCCC2)N(C)C(=O)CN(C)C(=O)CN(C)C1=O [Compound 892] (cyclo([Ac5c][NMeL][d(β3hA)][NMeV]I[Sar][Sar][NMeCha][Sar][hPhe(3-Cl-4-CF3)][NMeL]))	> 500	68
CCC[C@H]1C(=O)N[C@@H]([C@@H](C)CC)C(=O)N(C)CC(=O)N(C)CC(=O)N(C)[C@@H](CC2CCCC2)C(=O)N(C)CC(=O)N[C@@H](CCc2ccc(C(F)(F)F)c(Cl)c2)C(=O)N(C)[C@@H](Cc2cccnc2)C(=O)NC2(CCCC2)C(=O)N(C)[C@@H](C2CCCCC2)C(=O)N(C)[C@H](C(=O)N2CCOCC2)CC(=O)N1C [Compound 1937] ([NMeNva]I[Sar][Sar][NMeAla(cPent)][Sar][hPhe(3-Cl-4-CF3)][NMe3Pal][Ac5c][NMeChg][NMeD]-Morpholide; lactam N-11)	> 500	3.1
CC[C@H](C)[C@@H]1NC(=O)[C@H](C)N(C)C(=O)C[C@@H](C)NC(=O)[C@H](C2CCCC2)N(C)C(=O)C2(CCCC2)NC(=O)[C@@H]2CCCN2C(=O)[C@H](CCc2ccc(C(F)(F)F)c(Cl)c2)NC(=O)CN(C)C(=O)[C@H](Cc2cccnc2)N(C)C(=O)[C@@H]2CCCN2C(=O)CN(C)C1=O [Compound 489] (cyclo([Ac5c][NMeGly(cPent)][d(β3hA)][NMeA]I[Sar]P[NMe3Pal][Sar][hPhe(3-Cl-4-CF3)]P))	> 500	8.1
CCCCC[C@H]1C(=O)N[C@@H]([C@@H](C)CC)C(=O)N[C@@H](C)C(=O)N2CC[C@H]2C(=O)N(C)[C@@H](Cc2ccc(C(F)(F)F)cc2)C(=O)N(C)CC(=O)N[C@@H](CCc2ccc(C(F)(F)F)c(Cl)c2)C(=O)N2CCC[C@H]2C(=O)NC2(CCCC2)C(=O)N(C)[C@@H]([C@@H](C)CC)C(=O)N(C)[C@H](C(=O)N2CCOCC2)CC(=O)N1C [Compound 54] ([NMeAhp(2)]IA[Aze][NMePhe(4-CF3)][Sar][hPhe(3-Cl-4-CF3)]P[Ac5c][NMeI][NMeD]-Morpholide; lactam N-11)	≤ 20	1.9
